Data as given in patent US20200239530A1, “COMPOUNDS AND METHODS OF MODULATING PROTEIN DEGRADATION” (Vividion Therapeutics, Inc., priority 2017, published 2020).

Biological target: T1, KIAA0664 Clustered mitochondria protein homolog (Homo sapiens, UniProt O75153)
T1 construct: Cells were resuspended in cold PBS on ice and sonicated with a probe sonicator to achieve lysis; endogenous in cells
T1 sequence (O75153 1-1309): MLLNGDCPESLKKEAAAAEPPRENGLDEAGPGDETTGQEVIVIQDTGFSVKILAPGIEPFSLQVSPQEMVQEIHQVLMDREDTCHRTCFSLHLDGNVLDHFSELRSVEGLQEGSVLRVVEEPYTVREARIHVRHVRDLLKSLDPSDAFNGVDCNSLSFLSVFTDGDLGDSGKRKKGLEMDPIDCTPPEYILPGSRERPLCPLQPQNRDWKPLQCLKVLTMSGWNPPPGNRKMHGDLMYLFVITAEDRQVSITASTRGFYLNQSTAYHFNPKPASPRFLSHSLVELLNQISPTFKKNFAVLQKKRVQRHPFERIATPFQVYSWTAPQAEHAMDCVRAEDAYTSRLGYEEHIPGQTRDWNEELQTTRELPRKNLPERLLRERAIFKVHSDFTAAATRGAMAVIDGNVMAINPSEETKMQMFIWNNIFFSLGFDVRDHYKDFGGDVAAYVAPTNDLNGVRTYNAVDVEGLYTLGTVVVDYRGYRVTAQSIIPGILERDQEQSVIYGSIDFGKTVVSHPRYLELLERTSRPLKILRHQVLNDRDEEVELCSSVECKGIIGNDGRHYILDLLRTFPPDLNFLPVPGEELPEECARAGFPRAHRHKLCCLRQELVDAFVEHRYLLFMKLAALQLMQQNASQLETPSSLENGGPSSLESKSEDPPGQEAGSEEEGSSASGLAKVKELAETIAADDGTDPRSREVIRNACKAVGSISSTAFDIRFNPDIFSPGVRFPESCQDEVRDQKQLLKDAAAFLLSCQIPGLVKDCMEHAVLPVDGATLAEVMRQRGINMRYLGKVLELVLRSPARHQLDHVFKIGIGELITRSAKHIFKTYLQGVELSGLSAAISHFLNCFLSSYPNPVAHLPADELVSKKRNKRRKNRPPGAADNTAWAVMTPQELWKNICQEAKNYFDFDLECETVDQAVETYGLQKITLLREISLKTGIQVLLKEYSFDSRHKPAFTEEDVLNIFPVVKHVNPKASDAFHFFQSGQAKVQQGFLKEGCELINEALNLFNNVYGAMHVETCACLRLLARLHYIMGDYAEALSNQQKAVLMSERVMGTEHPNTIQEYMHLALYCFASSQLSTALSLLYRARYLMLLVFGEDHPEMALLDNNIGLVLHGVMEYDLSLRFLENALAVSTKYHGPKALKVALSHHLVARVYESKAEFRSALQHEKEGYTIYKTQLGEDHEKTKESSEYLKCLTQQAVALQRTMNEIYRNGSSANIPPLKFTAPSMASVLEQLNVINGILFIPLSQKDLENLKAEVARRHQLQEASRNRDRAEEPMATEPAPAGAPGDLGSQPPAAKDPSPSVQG
Experiment: Cysteine liganding, probe competition
Assay type: binding
Outline: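 Steps: sonicate cells in cold PBS; treat 5 mg/ml lysate with compound (25° C, 1 hr); add desthiobiotin iodoacetamide probe from a 10 mM stock (25° C, 1 hr); precipitate, reduce, alkylate, digest with trypsin; capture labelled peptides on streptavidin for analysis.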

COc1ccc2c(c1)CCCN2C(=O)CCl [KB02]
Liganded (KIAA0664 Res# 333, uniprot O75153): YES

O=C(CCl)Nc1cc(C(F)(F)F)cc(C(F)(F)F)c1 [KBO3]
100 Max (uniprot O75153): 23.11
100 ave (uniprot O75153): 9.323
500 ave (uniprot O75153): 51.405
500 Max (uniprot O75153, in % (unit assumed)): 73.65
